Like-named read-outs stand apart in the source and are kept apart here.
Columns and labels:
human CB2 receptors = human CB2 receptors (Homo sapiens (Human), UniProt P34972); assay: human CB2 radioligand binding assay ([3H]CP 55,940 competition)
Protocol: (§1) The CB1 and CB2 radioligand binding assays described herein are utilized to ascertain the affinity of compounds of the present application for binding to CB2 relative to CB1 receptors.
HEK293 cells stably expressing human CB2 receptors were grown until a confluent monolayer was formed. Briefly, the cells were harvested and homogenized in TE buffer (50 mM Tris-HCl, 1 mM MgCl2, and 1 mM EDTA) using a polytron for 2×10 second bursts in the presence of protease inhibitors, followed by centrifugation at 45,000×g for 20 minutes. The final membrane pellet was re-homogenized in storage buffer (50 mM Tris-HCl, 1 mM MgCl2, and 1 mM EDTA and 10% sucrose) and frozen at −78° C. until used. Saturation binding reactions were initiated by the addition of membrane preparation (protein concentration of 5 μg/well for human CB2) into wells of a deep well plate containing [^3H]CP 55,940 (120 Ci/mmol, a nonselective CB agonist commercially available from Tocris) in assay buffer (50 mM Tris, 2.5 mM EDTA, 5 mM MgCl2, and 0.5 mg/mL fatty acid free BSA, pH 7.4). After 90 min incubation at 30° C., binding reaction was terminated by the addition of 300 μL/well of cold assay buffer followed by rapid vacuum filtration through a UniFilter-96 GF/C filter plates (pre-soaked in 1 mg/mL BSA for 2 hours). The bound activity was counted in a TopCount using Microscint-20. Saturation experiments were conducted with twelve concentrations of [^3H]CP 55,940 ranging from 0.01 to 8 nM. Competition experiments were conducted with 0.5 nM [^3H]CP 55,940 and five concentrations (0.01 nM to 10 μM) of displacing ligands. The addition of 10 μM unlabeled CP 55,940 (Tocris, Ellisville, Mo.) was used to assess nonspecific binding.

rat CB2 = rat CB2 (Rattus norvegicus (Rat), UniProt Q9QZN9); assay: rat CB2 radioligand binding assay ([3H]CP 55,940 competition)
Sequence of rat CB2 (Q9QZN9 whole entry): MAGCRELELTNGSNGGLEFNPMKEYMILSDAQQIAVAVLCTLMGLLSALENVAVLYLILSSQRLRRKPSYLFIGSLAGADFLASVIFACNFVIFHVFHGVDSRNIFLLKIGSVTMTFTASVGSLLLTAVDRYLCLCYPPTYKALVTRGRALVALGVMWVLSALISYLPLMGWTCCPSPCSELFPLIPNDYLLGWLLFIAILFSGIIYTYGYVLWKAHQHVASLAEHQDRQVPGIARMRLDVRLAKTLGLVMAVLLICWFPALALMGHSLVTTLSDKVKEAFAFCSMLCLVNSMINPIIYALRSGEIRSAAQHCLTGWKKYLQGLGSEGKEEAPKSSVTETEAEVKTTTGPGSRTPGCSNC
Protocol: as §1
HEK293 cells stably expressing rat CB2 receptors were grown until a confluent monolayer was formed. Briefly, the cells were harvested and homogenized in TE buffer (50 mM Tris-HCl, 1 mM MgCl2, and 1 mM EDTA) using a polytron for 2×10 second bursts in the presence of protease inhibitors, followed by centrifugation at 45,000×g for 20 minutes. The final membrane pellet was re-homogenized in storage buffer (50 mM Tris-HCl, 1 mM MgCl2, and 1 mM EDTA and 10% sucrose) and frozen at −78° C. until used. Saturation binding reactions were initiated by the addition of membrane preparation (protein concentration of 20 μg/well for rat CB2) into wells of a deep well plate containing [^3H]CP 55,940 (120 Ci/mmol, a nonselective CB agonist commercially available from Tocris) in assay buffer (50 mM Tris, 2.5 mM EDTA, 5 mM MgCl2, and 0.5 mg/mL fatty acid free BSA, pH 7.4). After 45 min incubation at 30° C., binding reaction was terminated by the addition of 300 μl/well of cold assay buffer followed by rapid vacuum filtration through a UniFilter-96 GF/C filter plates (pre-soaked in 1 mg/mL BSA for 2 hours). The bound activity was counted in a TopCount using Microscint-20. Saturation experiments were conducted with twelve concentrations of [^3H]CP 55,940 ranging from 0.01 to 8 nM. Competition experiments were conducted with 0.5 nM [^3H]CP 55,940 and five concentrations of displacing ligands selected from the range of 0.01 nM to […] addition of 10 μM unlabeled CP 55,940 (Tocris, Ellisville, Mo.) was used to assess nonspecific binding.

[1] = HEK293 membranes, 0.5 nM [3H]CP 55,940, read-out: human CB2 (Ki)
[2] = HEK293 membranes, 0.5 nM [3H]CP 55,940, read-out: rat CB2 (Ki)

Sequence of human CB2 receptors (P34972 whole entry): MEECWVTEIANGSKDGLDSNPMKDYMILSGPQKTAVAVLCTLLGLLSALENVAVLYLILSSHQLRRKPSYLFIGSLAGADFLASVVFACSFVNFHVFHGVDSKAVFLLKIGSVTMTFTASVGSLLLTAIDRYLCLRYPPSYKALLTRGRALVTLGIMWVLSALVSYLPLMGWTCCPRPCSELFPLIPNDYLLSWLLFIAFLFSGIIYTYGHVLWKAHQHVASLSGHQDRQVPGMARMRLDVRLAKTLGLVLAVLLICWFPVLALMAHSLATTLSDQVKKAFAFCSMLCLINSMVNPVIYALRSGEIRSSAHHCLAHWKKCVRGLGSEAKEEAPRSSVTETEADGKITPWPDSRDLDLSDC

Row | SMILES | Ki (human CB2 receptors; [1]) | Ki (rat CB2; [2]) | Ki (human CB2 receptors) | Ki (rat CB2)
1 | CCCCn1nc(C(C)(C)C)s/c1=N\C(=O)c1cc(C(F)(F)F)ccc1ON=C(N)C(C)C [Example 175, 2-({[1-amino-2-methylpropylidene]amino}oxy)-N-[(2Z)-3-butyl-5-tert-butyl-1,3,4-thiadiazol-2(3H)-ylidene]-5-(trifluoromethyl)benzamide] | 5.3 nM | 2.9 nM |  | 
2 | CCCCn1nc(C(C)(C)C)s/c1=N\C(=O)c1cc(C(F)(F)F)ccc1ON=C(N)C(=O)OCC [Example 176, ethyl amino {[2-({[(2Z)-3-butyl-5-tert-butyl-1,3,4-thiadiazol-2(3H)-ylidene]amino}carbonyl)-4-(trifluoromethyl)phenoxy]imino}acetate] | 6.1 nM | 1.7 nM |  | 
3 | CC(C)(C)NOc1ccc(C(F)(F)F)cc1C(=O)/N=c1\sc(C(C)(C)C)nn1CC1CCO1 (stereo not drawn) [Example 177, 2-[(tert-butylamino)oxy]-N-[(2Z)-5-tert-butyl-3-(oxetan-2-ylmethyl)-1,3,4-thiadiazol-2(3H)-ylidene]-5-(trifluoromethyl)benzamide] | 15 nM | 7.3 nM |  | 
4 | C/C(=N\Oc1ccc(C(F)(F)F)cc1C(=O)/N=c1\cc(C(C)(C)C)n(C)n1C[C@H]1CCCO1)C(F)(F)F [Example 178, N-{(3E)-5-tert-butyl-1-methyl-2-[(2R)-tetrahydrofuran-2-ylmethyl]-1,2-dihydro-3H-pyrazol-3-ylidene}-5-(trifluoromethyl)-2-({[(1E)-2,2,2-trifluoro-1-methylethylidene]amino}oxy)benzamide] | > 1000 nM | 40 nM |  | 
5 | C/C(=N\Oc1ccc(C(F)(F)F)cc1C(=O)/N=c1\cc(C(C)(C)C)n(C)n1CC1CC1)C(F)(F)F [Example 179, N-[(3E)-5-tert-butyl-2-(cyclopropylmethyl)-1-methyl-1,2-dihydro-3H-pyrazol-3-ylidene]-5-trifluoromethyl-2-({[(1E)-2,2,2-trifluoro-1-methylethylidene]amino}oxy)benzamide] | > 1000 nM | 288 nM |  | 
6 | CCCCn1nc(C(C)(C)C)s/c1=N\C(=O)c1cc(C(F)(F)F)ccc1O/N=C(\C)C(C)=O [Example 180, N-[(2Z)-3-butyl-5-tert-butyl-1,3,4-thiadiazol-2(3H)-ylidene]-2-({[(1E)-1-methyl-2-oxopropylidene]amino}oxy)-5-(trifluoromethyl)benzamide] | 18 nM | 11 nM |  | 
7 | CCCCn1nc(C(C)(C)C)s/c1=N\C(=O)c1cc(C(F)(F)F)ccc1NNC(=O)OC(C)(C)C [Example 181, tert-butyl 2-[2-({[(2Z)-3-butyl-5-tert-butyl-1,3,4-thiadiazol-2(3H)-ylidene]amino}carbonyl)-4-(trifluoromethyl)phenyl]hydrazinecarboxylate] |  |  | 1 nM | 1.7 nM
8 | CCCCn1nc(C(C)(C)C)s/c1=N\C(=O)c1cc(C(F)(F)F)ccc1ON=C(N)c1ccc(F)cc1 [Example 182, 2-({[amino(4-fluorophenyl)methylene]amino}oxy)-N-[(2Z)-3-butyl-5-tert-butyl-1,3,4-thiadiazol-2(3H)-ylidene]-5-(trifluoromethyl)benzamide] | 21 nM | 7 nM |  | 
9 | CCCCn1nc(C(C)(C)C)s/c1=N\C(=O)c1cc(C(F)(F)F)ccc1NNc1ccccn1 [Example 183, N-[(2Z)-3-butyl-5-tert-butyl-1,3,4-thiadiazol-2(3H)-ylidene]-2-(2-pyridin-2-ylhydrazino)-5-(trifluoromethyl)benzamide] | 32 nM | 5.6 nM |  | 
10 | CCCCn1nc(C(C)(C)C)s/c1=N\C(=O)c1cc(C(F)(F)F)ccc1N(C)N(C)C(=O)OC(C)(C)C [Example 184] | 279 nM | 35 nM |  | 
11 | CCCCn1nc(C(C)(C)C)s/c1=N\C(=O)c1cc(C(F)(F)F)ccc1ON=C(C)N [Example 185, 2-({[1-aminoethylidene]amino}oxy)-N-[(2Z)-3-butyl-5-tert-butyl-1,3,4-thiadiazol-2(3H)-ylidene]-5-(trifluoromethyl)benzamide] | 16 nM | 3.6 nM |  | 
12 | CCCCn1nc(C(C)(C)C)s/c1=N\C(=O)c1cc(C(F)(F)F)ccc1ON=C(N)CC [Example 186, 2-({[1-aminopropylidene]amino}oxy)-N-[(2Z)-3-butyl-5-tert-butyl-1,3,4-thiadiazol-2(3H)-ylidene]-5-(trifluoromethyl)benzamide] | 5.1 nM | 2.7 nM |  | 
13 | CCCCn1nc(C(C)(C)C)s/c1=N\C(=O)c1cc(C(F)(F)F)ccc1NN=C(C)C [Example 187, N-[(2Z)-3-butyl-5-tert-butyl-1,3,4-thiadiazol-2(3H)-ylidene]-2-[2-(1-methylethylidene)hydrazino]-5-(trifluoromethyl)benzamide] | 247 nM | 120 nM |  | 
14 | CCCCn1nc(C(C)(C)C)s/c1=N\C(=O)c1cc(C(F)(F)F)ccc1ON=C(N)C1CC1 [Example 188, 2-({[amino(cyclopropyl)methylene]amino}oxy)-N-[(2Z)-3-butyl-5-tert-butyl-1,3,4-thiadiazol-2(3H)-ylidene]-5-(trifluoromethyl)benzamide] | 2.5 nM | 0.9 nM |  | 
15 | CCCCn1nc(C(C)(C)C)s/c1=N\C(=O)c1cc(C(F)(F)F)ccc1ON=C1CCCCCN1 [Example 189, 2-{[azepan-2-ylideneamino]oxy}-N-[(2Z)-3-butyl-5-tert-butyl-1,3,4-thiadiazol-2(3H)-ylidene]-5-(trifluoromethyl)benzamide] | 1.6 nM | 4.9 nM |  | 
16 | CCCCn1nc(C(C)(C)C)s/c1=N\C(=O)c1cc(C(F)(F)F)ccc1ON=C1CCCC1 [Example 190, N-[(2Z)-3-butyl-5-tert-butyl-1,3,4-thiadiazol-2(3H)-ylidene]-2-[(cyclopentylideneamino)oxy]-5-(trifluoromethyl)benzamide] | 1.7 nM | 3.2 nM |  | 
17 | CCCCn1nc(C(C)(C)C)s/c1=N\C(=O)c1cc(C(F)(F)F)ccc1NNC(=O)c1ccncc1 [Example 191, N-[(2Z)-3-butyl-5-tert-butyl-1,3,4-thiadiazol-2(3H)-ylidene]-2-(2-isonicotinoylhydrazino)-5-(trifluoromethyl)benzamide] | 0.8 nM | 0.9 nM |  | 
18 | CCCCn1nc(C(C)(C)C)s/c1=N\C(=O)c1cc(C(F)(F)F)ccc1NNC(=O)OC [Example 192, methyl 2-[2-({[(2Z)-3-butyl-5-tert-butyl-1,3,4-thiadiazol-2(3H)-ylidene]amino}carbonyl)-4-(trifluoromethyl)phenyl]hydrazinecarboxylate] |  |  | 0.7 nM | 0.7 nM
19 | CCCCn1nc(C(C)(C)C)s/c1=N\C(=O)c1cc(C(F)(F)F)ccc1NNC(=O)C(C)(C)C [Example 193, N-[(2Z)-3-butyl-5-tert-butyl-1,3,4-thiadiazol-2(3H)-ylidene]-2-[2-(2,2-dimethylpropanoyl)hydrazino]-5-(trifluoromethyl)benzamide] | 0.4 nM | 0.5 nM |  | 
20 | CCCCn1/c(=N/C(=O)c2cc(C(F)(F)F)ccc2O/N=C(\C)C(F)(F)F)cc(C(C)(C)C)n1C [Example 194, N-[(3E)-2-butyl-5-tert-butyl-1-methyl-1,2-dihydro-3H-pyrazol-3-ylidene]-5-(trifluoromethyl)-2-({[(1E)-2,2,2-trifluoro-1-methylethylidene]amino}oxy)benzamide] | 12 nM | 40 nM |  | 
21 | CCCCn1nc(C(C)(C)C)s/c1=N\C(=O)c1cc(C(F)(F)F)ccc1ON=C(N)c1ccccn1 [Example 196, 2-({[amino(pyridin-2-yl)methylene]amino}oxy)-N-[(2Z)-3-butyl-5-tert-butyl-1,3,4-thiadiazol-2(3H)-ylidene]-5-(trifluoromethyl)benzamide] | 18 nM | 4.1 nM |  | 
